Experimental data from patent US20240066018A1 (priority 2022, published 2024).

Experiments:
[1] = test system: primary colon cancer samples from patients with high M3 receptor expression grown as organoids
[2] = patients with irritable bowel syndrome; cited from earlier work

Q: With `c1ccc(C(O[C@@H]2CCCN(CCc3ccc4c(c3)OCO4)C2)c2ccccc2)cc1` [zamifenacin] as the compound, how does the Organoid growth [1] read?
A: inhibited

Q: And the Colonic motor activity [2]?
A: reduce colonic motor activity
